# Results reported in the supplement of paper PMC10331698.
# ± gives the standard deviation of the averaged measurements.
# Experiments:
# Assay in all cases: level (log10 ratio to DMSO vehicle control); higher = higher biomarker level / cell amount than vehicle control
# [1] = compound: C=CC(=O)OCCC(F)(F)C(F)(F)C(F)(F)C(F)(F)C(F)(F)C(F)(F)C(F)(F)C(F)(F)F [8:2 Fluorotelomer acrylate]; details: in DMSO
# Experimental: (§1)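 BioMAP Diversity Plus panel of 12 human primary cell co-culture systems (3C, 4H, LPS, SAg, BT, BF4T, BE3C, CASM3C, HDF3CGF, KF3CT, MyoF, Mphg). Compounds were added 1 h before stimulation and left for 24 h (MyoF 48 h; BT 72 h for soluble read-outs or 6 d for IgG). Biomarkers were read by ELISA, cytotoxicity by SRB, PBMC viability and proliferation by Alamar Blue. Each well value was divided by the mean of 8 DMSO control wells on the same plate and log10 transformed; duplicate blinded samples were tested at 4 concentrations.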
# Tetrafluorosuccinic acid = compound: O=C(O)C(F)(F)C(F)(F)C(=O)O [Tetrafluorosuccinic acid]; details: in DMSO
# Experimental: as §1
# [2] = compound: O=C(O)C(F)(F)C(F)(F)C(F)(F)C(F)(F)C(F)(F)C(F)(F)C(F)(F)F [Ammonium perfluorooctanoate]; details: in DMSO
# Experimental: as §1
# Perfluorooctanoic acid = compound: O=C(O)C(F)(F)C(F)(F)C(F)(F)C(F)(F)C(F)(F)C(F)(F)C(F)(F)F [Perfluorooctanoic acid]; details: in DMSO
# Experimental: as §1
# [3] = compound: O=S(=O)(OCC(F)(F)F)C(F)(F)C(F)(F)C(F)(F)C(F)(F)F [2,2,2-Trifluoroethyl perfluorobutanesulfonate]; details: in DMSO
# Experimental: as §1
# [4] = compound: OCC(F)(F)C(F)(F)C(F)(F)C(F)(F)C(F)(F)C(F)(F)C(F)(F)C(F)(F)C(F)(F)C(F)(F)C(F)(F)F [11:1 Fluorotelomer alcohol]; details: in DMSO
# Experimental: as §1
# [5] = compound: OCCC(F)(F)C(F)(F)C(F)(F)C(F)(F)C(F)(F)C(F)(F)C(F)(F)C(F)(F)F [8:2 Fluorotelomer alcohol]; details: 6700 nM; in DMSO
# Experimental: as §1
Test System,level (log10) ([1]; 6700 nM),level (log10) ([1]; 20000 nM),level (log10) ([1]; 60000 nM),level (log10) (Tetrafluorosuccinic acid; 6700 nM),level (log10) (Tetrafluorosuccinic acid; 20000 nM),level (log10) (Tetrafluorosuccinic acid; 60000 nM),level (log10) ([2]; 6700 nM),level (log10) ([2]; 20000 nM),level (log10) ([2]; 60000 nM),level (log10) (Perfluorooctanoic acid; 6700 nM),level (log10) (Perfluorooctanoic acid; 20000 nM),level (log10) (Perfluorooctanoic acid; 60000 nM),level (log10) ([3]; 6700 nM),level (log10) ([3]; 20000 nM),level (log10) ([3]; 60000 nM),level (log10) ([4]; 1100 nM),level (log10) ([4]; 3300 nM),level (log10) ([4]; 10000 nM),level (log10) [5]
HDF3CGF:Collagen III,0.032 ± 0.024,0.0315 ± 0.019,0.086 ± 0.014,-0.058 ± 0.057,-0.0805 ± 0.059,-0.118 ± 0.02,0.0555 ± 0.032,-0.1 ± 0.048,-0.142 ± 0.0021,0.012 ± 0.011,0.0255 ± 0.0078,0.0155 ± 0.053,-0.0265 ± 0.018,-0.0345 ± 0.033,-0.0995 ± 0.037,0.2 ± 0.0021,0.168 ± 0.057,0.171 ± 0.0042,-0.0025 ± 0.032
KF3CT:CXCL9/MIG,-0.0065 ± 0.0092,0.0005 ± 0.0035,0.011 ± 0.0085,-0.011 ± 0.014,-0.011 ± 0.0099,-0.017 ± 0.0014,0.005 ± 0.0014,0.0095 ± 0.0035,0.0115 ± 0.016,0.006 ± 0.016,0.006 ± 0.016,0.01 ± 0.016,0.023 ± 0.021,0.0095 ± 0.028,0.0015 ± 0.053,0.0015 ± 0.0035,-0.004,0.005 ± 0.011,0.0045 ± 0.0078
MyoF:Decorin,-0.0175 ± 0.0078,-0.0185 ± 0.0078,-0.016 ± 0.017,-0.0055 ± 0.0021,-0.006 ± 0.0057,0.014 ± 0.027,0.0055 ± 0.0035,0.0075 ± 0.00071,-0.0355 ± 0.057,0.007 ± 0.018,0.02 ± 0.025,0.033 ± 0.055,0.0135 ± 0.066,0.027 ± 0.014,0.008 ± 0.052,0.0065 ± 0.028,0.013 ± 0.021,0.0255 ± 0.0021,-0.0195 ± 0.019
KF3CT:TIMP-2,-0.0125 ± 0.037,-0.02,0.016 ± 0.013,0 ± 0.0071,0.0365 ± 0.005,0.027 ± 0.024,-0.006 ± 0.0028,-0.011 ± 0.018,0.0065 ± 0.025,-0.0195 ± 0.015,0.0025 ± 0.016,0.035 ± 0.038,-0.049 ± 0.0057,-0.0215 ± 0.049,-0.0495 ± 0.00071,-0.014 ± 0.0028,-0.0405 ± 0.013,0.002 ± 0.016,-0.0175 ± 0.026
lMphg:CXCL8/IL-8,-0.009 ± 0.052,0.019 ± 0.035,0.0665 ± 0.029,-0.0205 ± 0.0064,-0.025 ± 0.021,-0.0175 ± 0.023,0.0185 ± 0.026,0.099 ± 0.0057,0.222 ± 0.033,0.009 ± 0.021,0.073 ± 0.048,0.175 ± 0.054,0.031,0.025 ± 0.018,0.072 ± 0.068,0.111 ± 0.042,0.127 ± 0.033,0.0445 ± 0.0064,0.076 ± 0.024
CASM3C:M-CSF,0.003 ± 0.0057,0.0095 ± 0.032,0.0185 ± 0.04,-0.008 ± 0.035,-0.015 ± 0.016,0.0095 ± 0.033,-0.0045 ± 0.0021,0.011 ± 0.028,0.015 ± 0.05,0.0005 ± 0.012,-0.004 ± 0.021,0.0145 ± 0.022,-0.011 ± 0.0057,0.004 ± 0.0042,0.0365 ± 0.03,-0.026 ± 0.044,0.006 ± 0.031,0.017 ± 0.0099,-0.0135 ± 0.012
KF3CT:CD54/ICAM-1,0.003 ± 0.0042,-0.0155 ± 0.029,-0.0455 ± 0.019,0.011 ± 0.0085,0.003,0.025 ± 0.0042,0.004 ± 0.016,-0.0165 ± 0.018,-0.03 ± 0.023,-0.015 ± 0.011,-0.011 ± 0.0028,-0.0095 ± 0.018,0.015 ± 0.03,-0.0055 ± 0.0092,-0.006 ± 0.013,-0.014 ± 0.0071,-0.0295 ± 0.0021,-0.0045 ± 0.012,-0.0195 ± 0.0021
CASM3C:LDLR,-0.008 ± 0.011,-0.0135 ± 0.011,-0.002 ± 0.0099,0.0005 ± 0.0035,-0.02 ± 0.014,0.0015 ± 0.019,-0.0015 ± 0.018,0 ± 0.031,0.0085 ± 0.039,-0.011,0.001 ± 0.013,0.004 ± 0.014,-0.019 ± 0.062,-0.0255 ± 0.013,-0.0135 ± 0.0035,-0.0055 ± 0.0021,-0.0095 ± 0.0064,0 ± 0.035,-0.0045 ± 0.0078
3C:CD54/ICAM-1,-0.009 ± 0.02,-0.0205 ± 0.018,0.002 ± 0.0085,-0.0015 ± 0.0092,-0.016 ± 0.011,0.001 ± 0.0028,0.004 ± 0.014,0.0065 ± 0.0064,0.0065 ± 0.00071,-0.0145 ± 0.0035,-0.007 ± 0.0042,0.0185 ± 0.0078,-0.006 ± 0.0028,-0.0105 ± 0.0021,-0.0095 ± 0.0064,0.011 ± 0.03,0.0305 ± 0.028,0.0385 ± 0.018,-0.014 ± 0.0014
lMphg:CCL2/MCP-1,0.0035 ± 0.021,-0.0025 ± 0.0064,-0.0235 ± 0.039,-0.03 ± 0.016,-0.0195 ± 0.012,0.0005 ± 0.042,0.0045 ± 0.016,0.005 ± 0.016,0.0065 ± 0.0021,0.018 ± 0.0071,0.036 ± 0.0028,0.025 ± 0.025,-0.0115 ± 0.021,-0.0245 ± 0.022,-0.0405 ± 0.0035,0.0125 ± 0.0078,0.0295 ± 0.035,0.0535 ± 0.0021,0.0165 ± 0.019
KF3CT:CCL2/MCP-1,-0.0265 ± 0.042,-0.0415 ± 0.0092,-0.0725 ± 0.04,-0.05 ± 0.0085,-0.042 ± 0.021,-0.0065 ± 0.07,0.011 ± 0.024,-0.0245 ± 0.036,-0.119 ± 0.0064,0.005 ± 0.018,0.0145 ± 0.029,-0.0785 ± 0.011,-0.018 ± 0.057,-0.0485 ± 0.044,-0.022 ± 0.014,0.0265 ± 0.013,0.0205 ± 0.00071,0.0305 ± 0.00071,-0.0165 ± 0.025
